As usually defined, the IC50 is the concentration at which inhibition is half-maximal. Lower therefore signals greater potency in that assay.

This note sets out measurements from ChEMBL document CHEMBL1142046 (Bioorg Med Chem Lett, 2005).

Test [1] concerns Vero. Kind of test: Compound concentration to reduce virus cytopathic effect by 50% tested against herpes simplex virus-1(KOS) using Vero cell line. In kind it is functional, cell-based. The note with it: Chlorocebus sabaeus. (In general: Damage to the host cells serves as the signal in cytopathic effect assays.)
Test [2] concerns Vero. Kind of test: Compound concentration to reduce virus cytopathic effect by 50% tested against herpes simplex […] using Vero cell line. In kind it is functional, cell-based. The note with it: Chlorocebus sabaeus.
Test [3] relates to Vero. Kind of test: Minimum cytotoxic compound concentration to induce microscopically detectable alteration of cell morphology, using Vero cell line. In kind it is functional, Chlorocebus sabaeus.
In the next test the test system is HEL. Kind of test: Compound concentration to reduce virus plague formation by 50% tested against human cytomegalovirus laboratory strains Davis using HEL cell line. In kind it is functional, cell-based.
In test [4] the test system is MRC5. Kind of test: Cytotoxic compound concentration to reduce neutral red uptake by 50% using MRC-5 cell line. The format is functional, Homo sapiens.
Test [5] deals with MRC5. Kind of test: Compound concentration to reduce virus plague formation by 50% tested against human cytomegalovirus laboratory strains P8 using MRC-5 cell line. In kind it is functional, cell-based.
The test system of test [6] is MRC5. Kind of test: Compound concentration to reduce virus plague formation by 50% tested against human cytomegalovirus laboratory strains Ad169 using MRC-5 cell line. In kind it is functional, cell-based.

The structures appear in SMILES notation. ≈ marks a conversion by molar mass, not a printed value. A value given as a limit tells only on which side of the number the result lay.

On to `Nc1ccn(C[C@@H](CO)OCP(=O)(O)O)c(=O)n1.O.O` [CIDOFOVIR], for which the IC50 with Vero [1] was determined as 3.94 µg/mL; in the test on Vero [2], 1.28 µg/mL. In addition, in the test with Vero [3], the “minimum cytotoxic concentration (MCC)” value was greater than 100 µg/mL.
For `O=C1NCc2ccccc2OCCC/C=C/c2cncc3ccc1nc23`, the concentration for half-maximal inhibition (IC50) turned out to be 0.098 µg/mL (≈ 0.284 µM) with Vero [1], 3 ng/mL (≈ 0.00869 µM) in the test on HEL and 0.004 µg/mL (≈ 0.0116 µM) with Vero [2]. Besides, the CC50% in the test on MRC5 [4] worked out at 0.2 µg/mL (≈ 0.579 µM). For the same compound, the “minimum cytotoxic concentration (MCC)” value in the test on Vero [3] was 25 µg/mL.
In the case of `Nc1nc2c(ncn2COC(CO)CO)c(=O)[nH]1` [GANCICLOVIR], the IC50 in the test on Vero [1] came out at 1.27 µg/mL (≈ 4.99 µM); in the test with MRC5 [5], 1.2 µg/mL (≈ 4.7 µM); with HEL, 2700 ng/mL (≈ 10.6 µM); in the test with Vero [2] it was 1.22 µg/mL (≈ 4.78 µM); in the test on MRC5 [6], 2.2 µg/mL (≈ 8.62 µM). Moreover, in the test on MRC5 [4], the CC50% is greater than 1000 µg/mL. The “minimum cytotoxic concentration (MCC)” value in the test with Vero [3] was greater than 100 µg/mL.
On to `Cc1cncc2ccc(C(=O)NCc3ccccc3OC(C)C)nc12`, for which the IC50 in the test with MRC5 [5] turned out to be 0.13 µg/mL (≈ 0.388 µM); with MRC5 [6], 0.09 µg/mL (≈ 0.268 µM). This compound gave a CC50% in the test on MRC5 [4] of 2.4 µg/mL (≈ 7.16 µM).
Regarding `O=C1NCc2ccccc2OCC/C=C/c2cncc3ccc1nc23`, the IC50 in the test on Vero [1] was 0.391 µg/mL (≈ 1.18 µM); in the test with MRC5 [5], 0.0052 µg/mL (≈ 0.0157 µM); in the test with HEL it was less than 1.5 ng/mL; in the test with Vero [2], 0.009 µg/mL (≈ 0.0272 µM); in the test with MRC5 [6], 0.0006 µg/mL (≈ 0.00181 µM). The compound further had a CC50% in the test on MRC5 [4] of 1.8 µg/mL (≈ 5.43 µM). Moreover, in the test with Vero [3], the “minimum cytotoxic concentration (MCC)” value is 6 µg/mL.
